Assay results published in ChEMBL document CHEMBL1201862, “PubChem BioAssay data set” (2004).
Calls of active or inactive are those of the source.

Legend:
[1] = target: Multidrug resistance protein CDR2 (Candida albicans (strain SC5314 / ATCC MYA-2876) (Yeast), UniProt P78595); assay: CaCDR2 efflux pump inhibitors in yeast, dose response, S. cerevisiae AD1-8u, singleplex, Cherry Pick2 set (AID 623994); type: functional; details: read-out: EC50_MICROM
[2] = NIH-3T3 fibroblast cytotoxicity, dose response, cytotoxicity control, cell-based, fluorescence, Alamar Blue, secondary assay (AID 2327); type: functional;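 note: NIH-3T3 mouse fibroblasts cultured with fluconazole at 8 µg/mL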
[3] = C. albicans growth with fluconazole, confirmation, fluorescence, retest (AID 2467); type: functional, cell-based
[4] = target: T1, ATP-dependent translocase ABCB1 (Homo sapiens, UniProt P08183); assay: ABCB1 efflux inhibitor potency, dose response, Jurkat-DNR cells, JC-1, flow cytometry, set 2 (AID 504569); type: functional; details: read-out: EC50_MICROM_;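 note: potency of pump inhibitors that raise cellular JC-1 green fluorescence up to the nicardipine level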
T1 sequence (P08183 whole entry): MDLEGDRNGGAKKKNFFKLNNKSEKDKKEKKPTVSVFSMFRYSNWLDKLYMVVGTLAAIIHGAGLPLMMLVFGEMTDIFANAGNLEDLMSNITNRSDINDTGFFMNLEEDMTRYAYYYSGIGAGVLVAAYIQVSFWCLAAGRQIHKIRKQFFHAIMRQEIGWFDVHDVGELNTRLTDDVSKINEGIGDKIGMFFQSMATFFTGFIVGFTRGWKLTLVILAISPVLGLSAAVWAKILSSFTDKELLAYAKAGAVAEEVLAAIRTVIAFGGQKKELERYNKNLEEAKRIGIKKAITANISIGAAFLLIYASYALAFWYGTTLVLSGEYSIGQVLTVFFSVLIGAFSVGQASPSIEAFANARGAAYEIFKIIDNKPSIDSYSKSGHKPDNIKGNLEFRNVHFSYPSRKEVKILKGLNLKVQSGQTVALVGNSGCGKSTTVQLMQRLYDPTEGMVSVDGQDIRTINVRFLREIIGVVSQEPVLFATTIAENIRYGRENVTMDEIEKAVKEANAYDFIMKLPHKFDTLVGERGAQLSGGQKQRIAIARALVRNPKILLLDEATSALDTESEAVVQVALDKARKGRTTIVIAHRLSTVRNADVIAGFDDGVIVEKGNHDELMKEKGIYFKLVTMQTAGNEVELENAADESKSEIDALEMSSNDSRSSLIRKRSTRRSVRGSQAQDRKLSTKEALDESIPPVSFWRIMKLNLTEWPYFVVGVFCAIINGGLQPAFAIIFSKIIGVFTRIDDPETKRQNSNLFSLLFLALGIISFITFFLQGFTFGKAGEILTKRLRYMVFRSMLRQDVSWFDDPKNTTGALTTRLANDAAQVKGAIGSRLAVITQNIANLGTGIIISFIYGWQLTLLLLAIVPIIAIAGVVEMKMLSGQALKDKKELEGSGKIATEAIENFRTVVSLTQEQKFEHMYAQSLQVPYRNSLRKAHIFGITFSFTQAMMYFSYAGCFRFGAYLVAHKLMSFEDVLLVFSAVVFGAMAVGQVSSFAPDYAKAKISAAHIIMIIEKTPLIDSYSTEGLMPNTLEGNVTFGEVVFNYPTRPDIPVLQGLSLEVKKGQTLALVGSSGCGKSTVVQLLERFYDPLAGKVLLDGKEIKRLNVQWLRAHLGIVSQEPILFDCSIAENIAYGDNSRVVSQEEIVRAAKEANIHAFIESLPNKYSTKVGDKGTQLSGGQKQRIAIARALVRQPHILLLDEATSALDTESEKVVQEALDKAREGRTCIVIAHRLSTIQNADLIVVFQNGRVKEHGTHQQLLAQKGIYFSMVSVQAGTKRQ

[5] = target: T1, ATP-dependent translocase ABCB1; assay: ABCG2 efflux pump inhibitor potency, dose response, Ig-MXP3 cells, JC-1, flow cytometry, set 2 (AID 504566); type: functional; details: read-out: EC50_MICROM_;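 note: flow cytometry median green fluorescence of retained JC-1 dye; potency of efflux pump inhibition measured as rising substrate retention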
[6] = target: T2, Heat shock factor protein 1 (Mus musculus, UniProt P38532); assay: inhibition of MG132-induced HSE-luciferase signal, confirmation, cell-based, NIH3T3, luminescence, dose retest (AID 2382); type: functional;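 note: NIH3T3 fibroblasts with HSF1-driven luciferase reporter stressed by proteasome inhibitor MG132; luminescence from HSF1-driven luciferase expression after 8 hours of MG132 stress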
T2 sequence (P38532 whole entry): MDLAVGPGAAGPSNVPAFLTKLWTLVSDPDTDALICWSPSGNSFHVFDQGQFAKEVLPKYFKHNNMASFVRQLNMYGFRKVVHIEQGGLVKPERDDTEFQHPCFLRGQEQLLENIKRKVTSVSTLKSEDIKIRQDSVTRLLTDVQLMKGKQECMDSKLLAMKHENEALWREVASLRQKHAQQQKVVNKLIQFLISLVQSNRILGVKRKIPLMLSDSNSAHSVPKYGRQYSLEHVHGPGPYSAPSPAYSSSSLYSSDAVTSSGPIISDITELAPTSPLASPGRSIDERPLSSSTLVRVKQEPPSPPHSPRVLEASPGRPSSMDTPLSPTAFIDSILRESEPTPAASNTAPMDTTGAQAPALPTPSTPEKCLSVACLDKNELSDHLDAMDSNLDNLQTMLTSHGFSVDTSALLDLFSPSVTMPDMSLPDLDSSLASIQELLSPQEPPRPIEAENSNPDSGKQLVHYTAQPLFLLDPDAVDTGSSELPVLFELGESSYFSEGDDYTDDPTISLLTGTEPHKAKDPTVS

HEK293 [7] = assay: cells; type: functional, cell-based; details: Homo sapiens
HEK293 [8] = assay: NOD2 signaling inhibitors in MDP-stimulated cells, cell-based, uHTS, luminescence (AID 2001); type: functional; details: Homo sapiens
HEK293 [9] = assay: cells; type: functional, cell-based; details: Homo sapiens; remark: listed apart in the source
Nonstructural protein 1 = Nonstructural protein 1 (Influenza A virus, UniProt Q194T2); type: functional, Influenza A virus (A/California/07/2009(H1N1))
HEK293 [10] = assay: NOD1 signaling inhibitors, primary screen, cell-based, luminescence, uHTS (AID 1578); type: functional; details: Homo sapiens
[11] = target: Photoreceptor-specific nuclear receptor (Homo sapiens, UniProt Q9Y5X4); type: functional, cell-based;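 note: CHO-S cells with Gal4-NCOR and VP16-NR2E3 two-hybrid luciferase reporter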
Chain of Photoreceptor-specific nuclear receptor (Q9Y5X4 whole entry, the tested form may be a part): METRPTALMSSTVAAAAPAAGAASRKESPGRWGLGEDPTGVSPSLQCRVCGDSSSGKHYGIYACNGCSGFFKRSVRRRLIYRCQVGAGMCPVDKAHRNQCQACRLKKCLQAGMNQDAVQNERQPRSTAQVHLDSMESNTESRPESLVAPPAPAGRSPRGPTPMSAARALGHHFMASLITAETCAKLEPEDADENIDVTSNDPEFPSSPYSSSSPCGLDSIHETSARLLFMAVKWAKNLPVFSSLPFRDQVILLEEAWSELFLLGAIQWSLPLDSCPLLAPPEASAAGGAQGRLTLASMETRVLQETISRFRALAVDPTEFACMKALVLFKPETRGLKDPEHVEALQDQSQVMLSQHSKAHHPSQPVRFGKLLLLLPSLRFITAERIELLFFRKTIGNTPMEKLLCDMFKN

Protein Wnt-3a = Protein Wnt-3a (Mus musculus, UniProt P27467); assay: Wnt3a-driven reporter signaling inhibition, dose response, selectivity assay for Gli-SUFU antagonist project, Wnt-LIGHT cells, luminescence (AID 651570); type: functional; details: read-out: IC50_Mean;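 note: Wnt-LIGHT reporter cells stimulated with conditioned medium from Wnt3a-producing cells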
[12] = target: Multidrug resistance protein CDR1 (Candida albicans, UniProt P43071); assay: CaCDR1 efflux pump inhibitors in yeast, dose response, S. cerevisiae AD1-8u, singleplex, Cherry Pick1 hits (AID 588606); type: functional
Chain of Multidrug resistance protein CDR1 (P43071 whole entry, looked up, the tested form may be a part): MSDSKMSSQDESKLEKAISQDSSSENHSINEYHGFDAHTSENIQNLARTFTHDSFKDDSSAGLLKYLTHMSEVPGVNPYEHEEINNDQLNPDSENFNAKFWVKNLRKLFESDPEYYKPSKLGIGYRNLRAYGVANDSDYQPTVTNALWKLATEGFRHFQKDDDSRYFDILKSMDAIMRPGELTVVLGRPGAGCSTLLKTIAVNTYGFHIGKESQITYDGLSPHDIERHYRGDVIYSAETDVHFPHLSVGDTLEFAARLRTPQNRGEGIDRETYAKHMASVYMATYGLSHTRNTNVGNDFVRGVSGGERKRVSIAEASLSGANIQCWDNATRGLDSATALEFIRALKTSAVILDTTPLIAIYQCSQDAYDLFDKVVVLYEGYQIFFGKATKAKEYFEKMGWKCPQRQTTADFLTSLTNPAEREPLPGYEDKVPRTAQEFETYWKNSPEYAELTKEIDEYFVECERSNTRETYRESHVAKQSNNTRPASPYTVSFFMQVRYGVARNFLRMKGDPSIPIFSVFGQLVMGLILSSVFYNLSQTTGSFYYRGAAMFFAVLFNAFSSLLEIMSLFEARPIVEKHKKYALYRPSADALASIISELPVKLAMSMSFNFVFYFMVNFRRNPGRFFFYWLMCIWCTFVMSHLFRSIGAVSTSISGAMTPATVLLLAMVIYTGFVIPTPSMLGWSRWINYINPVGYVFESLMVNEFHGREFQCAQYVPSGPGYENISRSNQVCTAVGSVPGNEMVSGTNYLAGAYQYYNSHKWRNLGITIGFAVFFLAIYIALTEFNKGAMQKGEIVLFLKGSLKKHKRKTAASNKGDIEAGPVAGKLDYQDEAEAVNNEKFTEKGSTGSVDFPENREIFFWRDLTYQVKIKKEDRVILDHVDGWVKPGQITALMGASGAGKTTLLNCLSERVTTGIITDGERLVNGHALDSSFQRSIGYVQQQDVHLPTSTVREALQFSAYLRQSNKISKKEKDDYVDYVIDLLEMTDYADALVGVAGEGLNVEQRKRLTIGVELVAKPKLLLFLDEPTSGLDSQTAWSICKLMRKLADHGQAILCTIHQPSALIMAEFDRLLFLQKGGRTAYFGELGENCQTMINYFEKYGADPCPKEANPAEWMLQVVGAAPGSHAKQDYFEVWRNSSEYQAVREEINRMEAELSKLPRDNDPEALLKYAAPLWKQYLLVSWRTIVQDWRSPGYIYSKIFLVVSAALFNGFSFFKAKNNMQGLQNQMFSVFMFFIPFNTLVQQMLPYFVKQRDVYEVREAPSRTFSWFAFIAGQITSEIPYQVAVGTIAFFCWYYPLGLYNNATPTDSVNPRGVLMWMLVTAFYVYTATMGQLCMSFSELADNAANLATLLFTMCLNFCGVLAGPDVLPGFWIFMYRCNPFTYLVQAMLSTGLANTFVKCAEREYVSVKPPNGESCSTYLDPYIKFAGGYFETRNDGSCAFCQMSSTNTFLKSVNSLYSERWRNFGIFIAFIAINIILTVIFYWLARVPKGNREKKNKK

[13] = target: T3, Sentrin-specific protease 1 (Homo sapiens, UniProt Q9P0U3); assay: Dose response confirmation of small molecule inhibitors of the catalytic domain of the SUMO protease, SENP1 in a FRET assay.; type: functional; details: read-out: IC50_Mean
T3 sequence (Q9P0U3 whole entry, the tested form may be a part): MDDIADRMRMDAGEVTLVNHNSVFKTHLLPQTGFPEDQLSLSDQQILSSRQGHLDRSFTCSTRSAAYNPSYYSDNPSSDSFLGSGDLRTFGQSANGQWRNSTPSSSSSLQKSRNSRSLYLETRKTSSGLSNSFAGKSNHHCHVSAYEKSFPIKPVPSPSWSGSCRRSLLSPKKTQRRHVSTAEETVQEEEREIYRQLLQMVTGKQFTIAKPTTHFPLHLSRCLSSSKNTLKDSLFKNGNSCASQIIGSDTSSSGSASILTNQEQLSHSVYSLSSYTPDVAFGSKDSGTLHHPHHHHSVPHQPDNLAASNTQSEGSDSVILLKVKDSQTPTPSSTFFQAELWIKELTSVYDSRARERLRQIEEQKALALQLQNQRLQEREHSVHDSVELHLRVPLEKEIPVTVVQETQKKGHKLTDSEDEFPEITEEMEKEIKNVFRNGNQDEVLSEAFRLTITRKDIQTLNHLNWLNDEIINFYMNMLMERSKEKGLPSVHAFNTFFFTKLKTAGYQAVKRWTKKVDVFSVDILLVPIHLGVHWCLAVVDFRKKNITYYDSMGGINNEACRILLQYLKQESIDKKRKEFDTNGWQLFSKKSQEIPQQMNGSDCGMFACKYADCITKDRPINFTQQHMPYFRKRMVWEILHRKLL

[14] = target: T3, Sentrin-specific protease 1; assay: potency of human SENP1 inhibitors, dose response, biochemical, kinetic FRET (AID 651697); type: functional; details: read-out: IC50_Mean
Melanocortin receptor 4 = Melanocortin receptor 4 (Homo sapiens, UniProt P32245); assay: MC4R antagonist potency on cAMP, dose response, cell-based, TR-FRET, biased antagonists (AID 602298); type: functional;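 note: antagonist potency against agonist-stimulated cAMP production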
[15] = nonselective inhibitors of cellular cAMP signaling, dose response, counter-screen for MC4R biased antagonist project, cell-based, TR-FRET cAMP detection (AID 602305); type: functional;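 note: U2OS cells stimulated with forskolin near its EC80 as the cAMP inducer; potency is for inhibition of forskolin-stimulated cAMP signaling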
[16] = target: T4, High affinity choline transporter 1 (Homo sapiens, UniProt Q9GZV3); assay: CHT inhibitors, dose response, cell-based, 10-point CRC, membrane potential dye (AID 588401); type: functional;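 note: membrane potential dye fluorescence of choline-evoked depolarization via CHT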
T4 sequence (Q9GZV3 whole entry): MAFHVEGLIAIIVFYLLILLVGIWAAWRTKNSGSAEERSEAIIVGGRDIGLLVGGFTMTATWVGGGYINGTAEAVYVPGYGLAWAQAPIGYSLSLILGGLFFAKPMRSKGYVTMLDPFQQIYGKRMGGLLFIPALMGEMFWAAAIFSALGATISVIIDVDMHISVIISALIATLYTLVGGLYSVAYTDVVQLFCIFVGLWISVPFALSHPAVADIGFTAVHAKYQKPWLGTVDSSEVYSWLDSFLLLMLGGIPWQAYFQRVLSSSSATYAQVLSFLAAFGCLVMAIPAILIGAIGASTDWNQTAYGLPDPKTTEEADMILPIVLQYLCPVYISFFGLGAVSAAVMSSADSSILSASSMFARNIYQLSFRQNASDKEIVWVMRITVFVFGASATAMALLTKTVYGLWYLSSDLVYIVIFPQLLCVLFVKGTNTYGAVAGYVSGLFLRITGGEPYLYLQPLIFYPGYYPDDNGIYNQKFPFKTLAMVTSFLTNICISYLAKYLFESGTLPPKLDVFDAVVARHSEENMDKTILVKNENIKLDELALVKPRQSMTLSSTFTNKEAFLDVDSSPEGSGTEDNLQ

[17] = target: T4, High affinity choline transporter 1; assay: CHT inhibitors, dose response, cell-based, 5-point CRC, membrane potential dye (AID 504840); type: functional
[18] = target: T5, Probable nicotinate-nucleotide adenylyltransferase (Staphylococcus aureus (strain N315), UniProt P65502); type: functional, Staphylococcus aureus subsp. aureus N315;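 for IC50 Mean: confirmatory dose-response retesting of NadD inhibitor hits first found in an ultra-high-throughput screen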
T5 sequence (P65502 whole entry): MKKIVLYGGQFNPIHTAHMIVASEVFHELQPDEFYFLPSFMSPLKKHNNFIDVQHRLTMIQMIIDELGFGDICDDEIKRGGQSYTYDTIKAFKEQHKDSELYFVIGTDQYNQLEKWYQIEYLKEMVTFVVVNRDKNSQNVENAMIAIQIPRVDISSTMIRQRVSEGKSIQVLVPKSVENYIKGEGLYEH

[19] = target: T6, Small ubiquitin-related modifier 1 (Homo sapiens, UniProt P63165); assay: inhibitors of SUMO1 partner interactions, dose response, biochemical, FRET (AID 624383); type: functional; details: read-out: IC50_Mean
T6 sequence (P63165 whole entry): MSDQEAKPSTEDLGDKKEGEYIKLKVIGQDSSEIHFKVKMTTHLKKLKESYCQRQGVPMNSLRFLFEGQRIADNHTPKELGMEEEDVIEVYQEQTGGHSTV

[20] = target: T5, Probable nicotinate-nucleotide adenylyltransferase; type: functional, Staphylococcus aureus subsp. aureus N315; details: read-out: IC50_Mean
[21] = target: T7, Polyadenylate-binding protein 1 (Homo sapiens, UniProt P11940); assay: PABP1 MLLE–PAM2 interaction inhibitors, dose response, miRNA deadenylation inhibitor project, biochemical, fluorescence polarization, Cy5-PAM2 peptide, secondary (AID 602260); type: functional; details: read-out: IC50_Mean
T7 sequence (P11940 whole entry): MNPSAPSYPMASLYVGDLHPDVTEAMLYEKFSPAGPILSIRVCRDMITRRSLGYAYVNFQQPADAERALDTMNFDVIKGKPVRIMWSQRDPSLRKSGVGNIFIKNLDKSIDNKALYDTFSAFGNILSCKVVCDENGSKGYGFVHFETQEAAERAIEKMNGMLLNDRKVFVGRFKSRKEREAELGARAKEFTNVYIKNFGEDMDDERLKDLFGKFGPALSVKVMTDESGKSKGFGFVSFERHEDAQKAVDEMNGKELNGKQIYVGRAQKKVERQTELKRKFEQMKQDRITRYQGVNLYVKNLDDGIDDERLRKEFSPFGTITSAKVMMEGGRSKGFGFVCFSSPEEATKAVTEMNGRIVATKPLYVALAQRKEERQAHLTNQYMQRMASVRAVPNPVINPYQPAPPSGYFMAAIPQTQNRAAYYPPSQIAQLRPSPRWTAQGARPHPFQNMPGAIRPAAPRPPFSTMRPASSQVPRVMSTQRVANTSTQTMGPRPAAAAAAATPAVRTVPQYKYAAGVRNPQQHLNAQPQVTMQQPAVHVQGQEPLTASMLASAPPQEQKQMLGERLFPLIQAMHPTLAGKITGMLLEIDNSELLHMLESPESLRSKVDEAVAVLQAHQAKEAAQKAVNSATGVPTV

[22] = target: T6, Small ubiquitin-related modifier 1; assay: inhibitors of SUMO1 peptide binding, dose response, biochemical, fluorescence polarization, uHTS hits (AID 624382); type: functional; details: read-out: IC50_Mean
[23] = target: T7, Polyadenylate-binding protein 1; assay: PABP1 MLLE–PAM2 binding inhibitor potency, dose response, biochemical, fluorescence polarization, FITC-PAM2 peptide (AID 602259); type: functional; details: read-out: IC50_Mean
[24] = target: T8, Small ubiquitin-related modifier 2 (Homo sapiens, UniProt P61956); assay: SUMO2–SIM peptide binding inhibitors, dose response, selectivity assay for SUMO1 interaction inhibitor project, biochemical, fluorescence polarization, uHTS hits (AID 624385); type: functional; details: read-out: IC50_Mean
T8 sequence (P61956 whole entry): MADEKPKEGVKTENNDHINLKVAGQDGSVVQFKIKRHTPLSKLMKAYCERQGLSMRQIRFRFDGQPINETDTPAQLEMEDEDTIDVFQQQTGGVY

[25] = target: T8, Small ubiquitin-related modifier 2; assay: inhibitors of SUMO2 protein-protein interaction, dose response, selectivity assay for SUMO1 interaction inhibitor project, biochemical, FRET, human SUMO2, uHTS hits (AID 624384); type: functional; details: read-out: IC50_Mean

## CCC(=O)N1CCN(c2ccc(Cl)cc2NC(=O)c2ccc3c(c2)OCCO3)CC1
[1]
  EC50: 32.1 µM (active)
[2]
  EC50: 117 µM (active)
[3]
  EC50: 3.35 µM (active)

## O=C(c1ccco1)N1CCN(c2cc(-c3ccccc3)nc3cc(-c4cccc(F)c4)nn23)CC1
[4]
  EC50: 3.4 µM (active)
[5]
  EC50: 1.05 µM (active)

## CCOc1ccc(-c2nc(CSCC(=O)N3CCN(c4cccc(OC)c4)CC3)c(C)o2)cc1
[6]
  EC50: 48 µM (active)
HEK293 [7]
  IC50: 8.52 µM (active)
HEK293 [8]
  IC50: 5.09 µM (active)
HEK293 [9]
  IC50: 4.42 µM (active)
Nonstructural protein 1
  IC50: > 100 µM (active)
HEK293 [10]
  EC50: 5.87 µM (active)
[11]
  IC50: 4 µM (active)

## C=CCNC(=S)/N=c1/ccccn1Cc1ccccc1
Protein Wnt-3a
  IC50: 40.8 µM (inactive)

## O=C(Nc1ccnc(-c2cccnc2)n1)c1cccc(Cl)c1Cl
[12]
  EC50: 0.117 µM (active)

## O=C(O)c1ccc(N/N=C/c2cccc3nccnc23)cc1
[13]
  IC50: 8.97 µM (active)
[14]
  IC50: 15.1 µM (active)

## CC(C)(C)C(=O)COC(=O)CNC(=O)c1ccc(Oc2ccccc2)cc1
Melanocortin receptor 4
  IC50: > 64.6 µM (inactive)
[15]
  IC50: > 64.6 µM (inactive)

## CCCCn1nc2cc(C(=O)N[C@H](C)C3CCCCC3)ccc2c1OCC
[16]
  IC50: 4.47 µM (active)
[17]
  IC50: 7.76 µM (active)

## O=C(Nc1ccc2nc(-c3ccco3)c(-c3ccco3)nc2c1)N1CCN(c2ccccn2)CC1
[18]
  IC50: 8.98 µM (active)
[19]
  IC50: 51.7 µM (inactive)
[20]
  IC50: 19.7 µM (active)
[21]
  IC50: > 66 µM (inactive)
[22]
  IC50: 6.94 µM (active)
[23]
  IC50: > 66 µM (inactive)
[24]
  IC50: 8.13 µM (active)
[25]
  IC50: 24.6 µM (inactive)
